This experiment has as its target T1, CDK2/Cyclin A (Homo sapiens, UniProt P24941).
T1 construct: made in house; host or cells: CDK2: insect cells (baculovirus); cyclin A: E. coli
In words: Inhibition of CDK2/Cyclin A retinoblastoma kinase activity (apparent Ki). The class given is biochemical. The following applies: read-out: CDK2 Ki. On the procedure: Cyclin-dependent kinase activity was measured by quantifying the enzyme-catalyzed, time-dependent incorporation of radioactive phosphate from [^32P]ATP or [^33P]ATP into a protein substrate. […] Reactions were initiated with enzyme, incubated at 30° C., and terminated after 20 minutes by the addition of ethylenediaminetetraacetic acid (EDTA) to 250 mM. […] Radioactivity was quantified by exposing the dried membranes to a phosphorimager.
Apparent Ki values were measured by assaying enzyme activity in the presence of different inhibitor compound concentrations and subtracting the background radioactivity measured in the absence of enzyme. Inhibition data were fit to an equation for competitive inhibition using Kaleidagraph (Synergy Software), or were fit to an equation for competitive tight-binding inhibition using the software KineTic (BioKin, Ltd.).
A complex of CDK2 and proteolyzed cyclin A was prepared and purified by gel filtration. […] Ki values were measured as described above.
For `CCNCc1cncc(-c2ccc3[nH]nc(-c4nc(-c5ccccc5)c(C(=O)NCCCO)[nH]4)c3c2)c1C` [Example 17, 2-[5-(5-Ethylaminomethyl-4-methyl-pyridin-3-yl)-1H-indazol-3-yl]-5-phenyl-3H-imidazole-4-carboxylic acid (3-hydroxy-propyl)-amide], the Ki fell in the range of 50 to 200 nM.

Regarding `CCNCc1cncc(-c2ccc3[nH]nc(-c4nc(-c5ccccc5)c(C(=O)NCCCCO)[nH]4)c3c2)c1C` [Example 18, 2-[5-(5-Ethylaminomethyl-4-methyl-pyridin-3-yl)-1H-indazol-3-yl]-5-phenyl-3H-imidazole-4-carboxylic acid (4-hydroxy-butyl)-amide], the Ki is over 200 nM.

As for `CCNCc1cncc(-c2ccc3[nH]nc(-c4nc5c([nH]4)CCCC5)c3c2)c1C` [Example 21, Ethyl-{4-methyl-5-[3-(4,5,6,7-tetrahydro-1H-benzoimidazol-2-yl)-1H-indazol-5-yl]-pyridin-3-ylmethyl}-amine], the Ki was under 50 nM.

For the compound `CCNCc1cncc(-c2ccc3[nH]nc(-c4nc(-c5ccc(OC)c(OC)c5)c[nH]4)c3c2)c1C` [Example 33, (5-{3-[4-(3,4-Dimethoxy-phenyl)-1H-imidazol-2-yl]-1H-indazol-5-yl}-4-methyl-pyridin-3-ylmethyl)-ethyl-amine], the Ki was under 50 nM.

On to `CCNCc1cncc(-c2ccc3[nH]nc(-c4nc(-c5ccc(OC)cc5)c[nH]4)c3c2)c1C` [Example 34, Ethyl-(5-{3-[4-(4-methoxy-phenyl)-1H-imidazol-2-yl]-1H-indazol-5-yl}-4-methyl-pyridin-3-ylmethyl)-amine], for which the Ki was under 50 nM.

`Cc1c(N)cncc1-c1ccc2[nH]nc(-c3nc4c([nH]3)CCCC4)c2c1` [Example 36, 4-Methyl-5-[3-(4,5,6,7-tetrahydro-1H-benzoimidazol-2-yl)-1H-indazol-5-yl]-pyridin-3-ylamine]: the Ki is under 50 nM.

As to `CCc1nc(-c2n[nH]c3ccc(-c4cncc(N)c4C)cc23)[nH]c1CC` [Example 37, 5-[3-(4,5-Diethyl-1H-imidazol-2-yl)-1H-indazol-5-yl]-4-methyl-pyridin-3-ylamine], the Ki is under 50 nM.

As to `Cc1c(N)cncc1-c1ccc2[nH]nc(-c3nc(-c4cccc(F)c4)c[nH]3)c2c1` [Example 38, 5-{3-[4-(3-Fluoro-phenyl)-1H-imidazol-2-yl]-1H-indazol-5-yl}-4-methyl-pyridin-3-ylamine], the Ki was under 50 nM.

On to `Cc1c(N)cncc1-c1ccc2[nH]nc(-c3nc(-c4ccccc4)c[nH]3)c2c1` [Example 39, 4-Methyl-5-[3-(4-phenyl-1H-imidazol-2-yl)-1H-indazol-5-yl]-pyridin-3-ylamine], for which the Ki was under 50 nM.

In the case of `Cc1c(N)cncc1-c1ccc2[nH]nc(-c3nc(-c4ccc(F)cc4)c[nH]3)c2c1` [Example 40, 5-{3-[4-(4-Fluoro-phenyl)-1H-imidazol-2-yl]-1H-indazol-5-yl}-4-methyl-pyridin-3-ylamine], the Ki is under 50 nM.

`CNCc1cncc(-c2ccc3[nH]nc(-c4ncc[nH]4)c3c2)c1C` [Example 45, {5-[3-(1H-Imidazol-2-yl)-1H-indazol-5-yl]-4-methyl-pyridin-3-ylmethyl}-methyl-amine]: the Ki was under 50 nM.

As for `CCNCc1cncc(-c2ccc3[nH]nc(-c4nc(C(=O)NCc5ccccn5)c[nH]4)c3c2)c1C` [Example 52, 2-(5-{5-[(ethylamino)methyl]-4-methylpyridin-3-yl}-1H-indazol-3-yl)-N-(pyridin-2-ylmethyl)1H-imidazole-5-carboxamide], the Ki was under 50 nM.

As to `CCNCc1cncc(-c2ccc3[nH]nc(-c4ncc(C(=O)N(CC)CC)[nH]4)c3c2)c1C` [Example 56, N,N-diethyl-2-(5-{5-[(ethylamino)methyl]-4-methylpyridin-3-yl}-1H-indazol-3-yl)-1H-imidazole-5-carboxamide], the Ki is under 50 nM.

On to `CCNCc1cncc(-c2ccc3[nH]nc(-c4nc(C(=O)N5CCN(C)CC5)c[nH]4)c3c2)c1C` [Example 57, N-{[4-methyl-5-(3-{5-[(4-methylpiperazin-1-yl)carbonyl]-1H-imidazol-2-yl}-1H-indazol-5-yl)pyridin-3-yl]methyl}ethanamine], for which the Ki was under 50 nM.

Turning to `CCNCc1cncc(-c2ccc3[nH]nc(-c4nc(C(=O)NC5CCCC5)c[nH]4)c3c2)c1C` [Example 58, N-cyclopentyl-2-(5-{5-[(ethylamino)methyl]-4-methylpyridin-3-yl}-1H-indazol-3-yl)-1H-imidazole-5-carboxamide], the Ki is under 50 nM.

Regarding `CCNCc1cncc(-c2ccc3[nH]nc(-c4ncc(C(=O)N5CCN(c6ccccc6)CC5)[nH]4)c3c2)c1C` [Example 59, N-{[4-methyl-5-(3-{5-[(4-phenylpiperazin-1-yl)carbonyl]-1H-imidazol-2-yl}-1H-indazol-5-yl)pyridin-3-yl]methyl}ethanamine], the Ki was under 50 nM.

Regarding `CCNCc1cncc(-c2ccc3[nH]nc(-c4ncc(C(=O)N5C[C@@H](C)O[C@@H](C)C5)[nH]4)c3c2)c1C` [Example 60, N-({5-[3-(5-{[(2R,6S)-2,6-dimethylmorpholin-4-yl]carbonyl}-1H-imidazol-2-yl)-1H-indazol-5-yl]-4-methylpyridin-3-yl}methyl)ethanamine], the Ki is under 50 nM.

In the case of `CCNCc1cncc(-c2ccc3[nH]nc(-c4ncc(C(=O)N5CCC(Oc6ccccc6)CC5)[nH]4)c3c2)c1C` [Example 70, N-{[4-methyl-5-(3-{5-[(4-phenoxypiperidin-1-yl)carbonyl]-1H-imidazol-2-yl}-1H-indazol-5-yl)pyridin-3-yl]methyl}ethanamine], the Ki was under 50 nM.

For the compound `CCNCc1cncc(-c2ccc3[nH]nc(-c4ncc(C(=O)N5CCN(CCOC)CC5)[nH]4)c3c2)c1C` [Example 78, N-({5-[3-(5-{[4-(2-methoxyethyl)piperazin-1-yl]carbonyl}-1H-imidazol-2-yl)-1H-indazol-5-yl]-4-methylpyridin-3-yl}methyl)ethanamine], the Ki was under 50 nM.

Take `CCNCc1cncc(-c2ccc3[nH]nc(-c4ncc(C(=O)N5CCCC(Cc6ncccn6)CC5)[nH]4)c3c2)c1C` (centres unmarked) [Example 79, N-({4-methyl-5-[3-(5-{[4-(pyrimidin-2-ylmethyl)azepan-1-yl]carbonyl}-1H-imidazol-2-yl)-1H-indazol-5-yl]pyridin-3-yl}methyl)ethanamine]: the Ki is under 50 nM.

For `CCNCc1cncc(-c2ccc3[nH]nc(-c4ncc(C(=O)NCCC5=CCCCC5)[nH]4)c3c2)c1C` [Example 80, N-(2-cyclohex-1-en-1-ylethyl)-2-(5-{5-[(ethylamino)methyl]-4-methylpyridin-3-yl}-1H-indazol-3-yl)-1H-imidazole-5-carboxamide], the Ki was under 50 nM.

With `CCNCc1cncc(-c2ccc3[nH]nc(-c4ncc(C(=O)N(CCN(C)C)Cc5ccccc5)[nH]4)c3c2)c1C` [Example 81, N-benzyl-N-[2-(dimethylamino)ethyl]-2-(5-{5-[(ethylamino)methyl]-4-methylpyridin-3-yl}-1H-indazol-3-yl)-1H-imidazole-5-carboxamide], the Ki is under 50 nM.

For `CCNCc1cncc(-c2ccc3[nH]nc(-c4ncc(C(=O)N(C)C5CCN(Cc6ccccc6)C5)[nH]4)c3c2)c1C` (centres unmarked) [Example 82, N-(1-benzylpyrrolidin-3-yl)-2-(5-{5-[(ethylamino)methyl]-4-methylpyridin-3-yl}-1H-indazol-3yl)-N-methyl-1H-imidazole-5-carboxamide], the Ki is under 50 nM.

`CCNCc1cncc(-c2ccc3[nH]nc(-c4ncc(C(=O)N(C)C5CCN(C)C5)[nH]4)c3c2)c1C` (centres unmarked) [Example 84, 2-(5-{5-[(ethylamino)methyl]-4-methylpyridin-3-yl}-1H-indazol-3-yl)-N-methyl-N-(1-methylpyrrolidin-3-yl)-1H-imidazole-5-carboxamide]: the Ki was 50 to 200 nM.

On to `CCNCc1cncc(-c2ccc3[nH]nc(-c4ocnc4C)c3c2)c1C` [Example 88, N-({4-methyl-5-[3-(4-methyl-1,3-oxazol-5-yl)-1H-indazol-5-yl]pyridin-3-yl}methyl)ethanamine], for which the Ki was over 200 nM.

In the case of `CCNCc1cncc(-c2ccc3[nH]nc(-c4cc(C)n[nH]4)c3c2)c1C` [Example 89, Ethyl-{4-methyl-5-[3-(5-methyl-2H-pyrazol-3-yl)-1H-indazol-5-yl]-pyridin-3-ylmethyl}-amine], the Ki was under 50 nM.

`CCNCc1cncc(-c2ccc3[nH]nc(-c4nnn[nH]4)c3c2)c1C` [Example 91, Ethyl-{4-methyl-5-[3-(1H-tetrazol-5-yl)-1H-indazol-5-yl]-pyridin-3-ylmethyl}-amine]: the Ki was over 200 nM.

On to `CCNCc1cncc(-c2ccc3[nH]nc(-c4nc(C)c[nH]4)c3c2)c1C` [Example 92, N-({4-methyl-5-[3-(4-methyl-1H-imidazol-2-yl)-1H-indazol-5-yl]pyridin-3-yl}methyl)ethanamine], for which the Ki is under 50 nM.

`CNCc1cncc(-c2ccc3[nH]nc(-c4nc(C)c[nH]4)c3c2)c1C` [Example 93, N-methyl-1-{4-methyl-5-[3-(4-methyl-1H-imidazol-2-yl)-1H-indazol-5-yl]pyridin-3-yl}methanamine]: the Ki was under 50 nM.
